Counter-ions that a name gives are not always drawn. Like-named read-outs stand apart in the source and are kept apart here.
Assays:
[1] = molecular target: human CDK4 and genetically truncated (1-264) cyclin D3 (Homo sapiens, UniProt P11802); test: Inhibition of CDK4/Cyclin D Retinoblastoma Kinase Activity; format: biochemical; conditions: for Ki: apparent Ki, CDK4/truncated cyclin D3, Rb fragment substrate, 25 μM ATP
How it was run: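 The enzyme complex (5 nM), expressed in co-infected insect cells, was incubated with recombinant Rb fragment, 25 μM radiolabelled ATP and 2% DMSO at 30 °C. Reactions were stopped with EDTA after 20 minutes, or 60 minutes for tight-binding inhibitors. Apparent Ki values came from competitive inhibition fits.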

[2] = molecular target: CDK2/Cyclin A (Homo sapiens, UniProt P24941); test: Inhibition of CDK2/Cyclin A Retinoblastoma Kinase Activity; format: biochemical; conditions: for Ki: apparent Ki, CDK2/proteolyzed cyclin A, Rb fragment substrate, 25 μM ATP; for CDK2 % Inhibition At 0.03 μM: Table 2
How it was run: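 CDK2 (10 or 19 nM), insect-cell expressed, gel-filtration purified with truncated cyclin A; Rb fragment substrate; 25 μM ATP; 10 mM HEPES pH 7.4, 10 mM MgCl2; 30° C, 60 or 75 min; EDTA stop; phosphocellulose/nitrocellulose capture, phosphorimager. % inhibition vs DMSO control, no-enzyme background subtracted.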

[3] = tested on: HCT-116 cell line; test: Inhibition of cell growth, tetrazolium salt (MTT) assay; format: cell-based; conditions: for HCT-116 % Inhibition at 0.25 μM: 0.25 μM compound; for IC50: Homo sapiens, HCT-116, 120 h, MTT, three to five days, read-out: HCT-116 IC50
How it was run: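 McCoy's 5A cultures; 4 h pre-incubation; compound dilutions in 0.5% v/v DMSO; 3–5 d, 37° C, 5% CO2; MTT 0.2 mg/mL final, 4 h; formazan dissolved in DMSO, A540; vs 0.5% DMSO vehicle.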

[4] = 0.1 μM compound, HCT-116, Table 4
[5] = 0.1 μM compound, HCT-116, Table 3

human CDK4 and genetically truncated (1-264) cyclin D3, sequence (P11802 whole entry, the tested form may be a part): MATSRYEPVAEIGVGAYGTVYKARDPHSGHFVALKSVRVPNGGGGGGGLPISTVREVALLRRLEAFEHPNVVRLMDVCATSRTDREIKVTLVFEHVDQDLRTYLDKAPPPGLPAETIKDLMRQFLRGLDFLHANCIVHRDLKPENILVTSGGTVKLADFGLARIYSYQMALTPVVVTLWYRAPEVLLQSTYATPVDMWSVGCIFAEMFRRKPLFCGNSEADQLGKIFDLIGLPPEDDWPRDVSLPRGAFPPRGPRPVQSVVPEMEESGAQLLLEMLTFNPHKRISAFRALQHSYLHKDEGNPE
human CDK4 and genetically truncated (1-264) cyclin D3, sequence (P30281 1-264 partner): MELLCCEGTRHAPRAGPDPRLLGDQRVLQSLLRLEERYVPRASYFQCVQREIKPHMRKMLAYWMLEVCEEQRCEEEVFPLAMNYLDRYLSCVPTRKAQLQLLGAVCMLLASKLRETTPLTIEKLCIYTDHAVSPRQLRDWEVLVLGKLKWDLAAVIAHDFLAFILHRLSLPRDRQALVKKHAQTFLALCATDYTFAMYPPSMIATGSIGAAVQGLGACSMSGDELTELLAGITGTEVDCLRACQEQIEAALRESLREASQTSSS

## CC12CCC(C(=O)N3CCC(Nc4nc(N)c(C(=O)c5c(F)cccc5F)s4)CC3)(OC1=O)C2(C)C (stereo not drawn) [Example R67]
[1]; at 0.03 μM
  CDK4 % Inhibition at 0.03 μM: 22%
[2]; at 0.03 μM
  CDK2 % Inhibition at 0.03 μM: 11%
[3]; HCT-116 cells, at 0.1 μM
  HCT-116 % Inhibition at 0.1 μM: 4%
[3]; HCT-116 cells
  HCT-116 5 Inhibition at 0.25 μM: 40

## CC(C)(C)c1ccc(C(=O)N2CCC(Nc3nc(N)c(C(=O)c4c(F)cccc4F)s3)CC2)cc1 [Example R153]
[1]; at 0.03 μM
  CDK4 % Inhibition at 0.03 μM: 58%
[2]; at 0.03 μM
  CDK2 % Inhibition at 0.03 μM: 37%
[3]; HCT-116 cells, at 0.1 μM
  HCT-116 % Inhibition at 0.1 μM: 0%
[3]; HCT-116 cells
  HCT-116 5 Inhibition at 0.25 μM: 44

## Nc1nc(NC2CCN(C(=O)c3ccc4c(c3)C(=O)OC4=O)CC2)sc1C(=O)c1c(F)cccc1F [Example Q66]
[1]; 0.03 μM compound, Table 4
  CDK4 % Inhibition at 0.03 μM: 29%
[2]; 0.03 μM compound, Table 4
  CDK2 % Inhibition at 0.03 μM: 7%
[3]; [4]
  HCT-116 % Inhibition at 0.1 μM: 7%
[3]; HCT-116, Table 4
  HCT-116 % Inhibition at 0.25 μM: 34%

## Nc1nc(NC2CCN(C(=O)c3csc(C4COc5ccccc5O4)n3)CC2)sc1C(=O)c1c(F)cccc1F (stereo not drawn) [Example R57]
[1]; at 0.03 μM
  CDK4 % Inhibition at 0.03 μM: 36%
[2]; at 0.03 μM
  CDK2 % Inhibition at 0.03 μM: 23%
[3]; HCT-116 cells, at 0.1 μM
  HCT-116 % Inhibition at 0.1 μM: 0%
[3]; HCT-116 cells
  HCT-116 5 Inhibition at 0.25 μM: 47

## Nc1nc(NC2CCN(C(=O)c3ccc(Cl)cc3)CC2)sc1C(=O)c1c(F)cccc1F [Example Q27]
[1]; 0.03 μM compound, Table 4
  CDK4 % Inhibition at 0.03 μM: 76%
[2]; 0.03 μM compound, Table 4
  CDK2 % Inhibition at 0.03 μM: 32%
[3]; [4]
  HCT-116 % Inhibition at 0.1 μM: 4%
[3]; HCT-116, Table 4
  HCT-116 % Inhibition at 0.25 μM: 40%

## CC[C@H](NCCS(=O)(=O)N1CCC(Nc2nc(N)c(C(=O)c3c(F)cccc3F)s2)CC1)c1ccccc1 [Example K42, (4-Amino-2-{1-[2-(1S-phenyl-propylamino)-ethanesulfonyl]-piperidin-4-ylamino}-thiazol-5-yl)-(2,6-difluoro-phenyl)-methanone]
[1]
  Ki: 1.9 nM
[2]
  Ki: 1 nM
[3]; first HCT-116 column (c4)
  IC50: 50 nM
[3]; second HCT-116 column (c5)
  IC50: 150 nM

## Nc1nc(NC2CCN(S(=O)(=O)c3cccs3)CC2)sc1C(=O)c1c(F)cccc1F [Example F51, {4-Amino-2-[1-(thiophene-2-sulfonyl)-piperidin4-ylamino]-thiazol-5-yl}-(2,6-difluoro-phenyl)-methanone]
[1]
  Ki: 5.5 nM
[2]
  Ki: 1.5 nM
[3]; first HCT-116 column (c4)
  IC50: 300 nM
[3]; second HCT-116 column (c5)
  IC50: 630 nM

## Nc1nc(NC2CCN(S(=O)(=O)c3ccc(S(=O)(=O)c4ccc(C(F)(F)F)cn4)s3)CC2)sc1C(=O)c1c(F)cccc1F [Example P43]
[1]; 0.03 μM compound, Table 3
  CDK4 % Inhibition at 0.03 μM: 57%
[2]; 0.03 μM compound, Table 3
  CDK2 % Inhibition at 0.03 μM: 70%
[3]; [5]
  HCT-116 % Inhibition at 0.1 μM: 0%
[3]; HCT-116, Table 3
  HCT-116 % Inhibition at 0.25 μM: 17%

## Nc1nc(NC2CCN(C(=O)c3ccc(OC(F)(F)F)cc3)CC2)sc1C(=O)c1c(F)cccc1F [Example R22]
[1]; at 0.03 μM
  CDK4 % Inhibition at 0.03 μM: 58%
[2]; at 0.03 μM
  CDK2 % Inhibition at 0.03 μM: 22%
[3]; HCT-116 cells, at 0.1 μM
  HCT-116 % Inhibition at 0.1 μM: 7%
[3]; HCT-116 cells
  HCT-116 5 Inhibition at 0.25 μM: 48

## Nc1nc(NC2CCN(C(=O)Nc3cccc(C(F)(F)F)c3)CC2)sc1C(=O)c1c(F)cccc1F [Example O16]
[1]; 0.03 μM compound, Table 2
  CDK4 % Inhibition at 0.03 μM: 5%
[2]; 0.03 μM compound
  CDK2 % Inhibition At 0.03 μM: 34%
[3]; HCT-116, Table 2
  HCT-116 % Inhibition at 0.25 μM: 6%

## CN1CCCC(COc2ccc(S(=O)(=O)N3CCC(Nc4nc(N)c(C(=O)c5c(F)cccc5F)s4)CC3)cn2)C1 (stereo not drawn) [Example H7, 1-[4-Amino-2-{1-[6-(1-methyl-piperidin-3RS-ylmethoxy)-pyridine-3-sulfonyl]-piperidin-4-ylamino}-thiazol-5-yl)-1-(2,6-difluoro-phenyl)-methanone Trifluoroacetic Acid Salt]
[1]
  Ki: 0.21 nM
[2]
  Ki: 0.8 nM
[3]; first HCT-116 column (c4)
  IC50: 40 nM
[3]; second HCT-116 column (c5)
  IC50: 250 nM

## Nc1nc(NC2CCN(S(=O)(=O)CCCN3CCCC3)CC2)sc1C(=O)c1c(F)cccc1F [Example K8, 1-(4-Amino-2-{1-[3-(pyrrolidin-1-yl)propane-1 sulfonyl]-piperidin-4-ylamino}-thiazol-5-yl)-1-(2,6-difluoro-phenyl)-methanone.]
[1]
  Ki: 2.7 nM
[2]
  Ki: 1.8 nM
[3]; first HCT-116 column (c4)
  IC50: 310 nM
[3]; second HCT-116 column (c5)
  IC50: 2900 nM

## Nc1nc(NC2CCN(C(=O)Nc3ccccc3Oc3ccccc3)CC2)sc1C(=O)c1c(F)cccc1F [Example O82]
[1]; 0.03 μM compound, Table 2
  CDK4 % Inhibition at 0.03 μM: 4%
[2]; 0.03 μM compound
  CDK2 % Inhibition At 0.03 μM: 34%
[3]; HCT-116, Table 2
  HCT-116 % Inhibition at 0.25 μM: 34%

## Nc1nc(NC2CCN(S(=O)(=O)c3ccc(F)cc3F)CC2)sc1C(=O)c1c(F)cccc1F [Example P34]
[1]; 0.03 μM compound, Table 3
  CDK4 % Inhibition at 0.03 μM: 58%
[2]; 0.03 μM compound, Table 3
  CDK2 % Inhibition at 0.03 μM: 60%
[3]; [5]
  HCT-116 % Inhibition at 0.1 μM: 8%
[3]; HCT-116, Table 3
  HCT-116 % Inhibition at 0.25 μM: 23%

## CCOC(=O)CNC(=O)N1CCC(Nc2nc(N)c(C(=O)c3c(F)cccc3F)s2)CC1 [Example O30]
[1]; 0.03 μM compound, Table 2
  CDK4 % Inhibition at 0.03 μM: 16%
[2]; 0.03 μM compound
  CDK2 % Inhibition At 0.03 μM: 27%
[3]; HCT-116, Table 2
  HCT-116 % Inhibition at 0.25 μM: 31%

## Nc1nc(NC2CCN(C(=O)C(Cl)(c3ccccc3)c3ccccc3)CC2)sc1C(=O)c1c(F)cccc1F [Example Q51]
[1]; 0.03 μM compound, Table 4
  CDK4 % Inhibition at 0.03 μM: 22%
[2]; 0.03 μM compound, Table 4
  CDK2 % Inhibition at 0.03 μM: 4%
[3]; [4]
  HCT-116 % Inhibition at 0.1 μM: 0%
[3]; HCT-116, Table 4
  HCT-116 % Inhibition at 0.25 μM: 34%

## COc1ccccc1C(=O)N1CCC(Nc2nc(N)c(C(=O)c3c(F)cccc3F)s2)CC1 [Example Q15]
[1]; 0.03 μM compound, Table 4
  CDK4 % Inhibition at 0.03 μM: 52%
[2]; 0.03 μM compound, Table 4
  CDK2 % Inhibition at 0.03 μM: 25%
[3]; [4]
  HCT-116 % Inhibition at 0.1 μM: 9%
[3]; HCT-116, Table 4
  HCT-116 % Inhibition at 0.25 μM: 45%

## CCC(C(=O)N1CCC(Nc2nc(N)c(C(=O)c3c(F)cccc3F)s2)CC1)c1ccccc1 (stereo not drawn) [Example R163]
[1]; at 0.03 μM
  CDK4 % Inhibition at 0.03 μM: 28%
[2]; at 0.03 μM
  CDK2 % Inhibition at 0.03 μM: 26%
[3]; HCT-116 cells, at 0.1 μM
  HCT-116 % Inhibition at 0.1 μM: 0%
[3]; HCT-116 cells
  HCT-116 5 Inhibition at 0.25 μM: 44

## COC(=O)c1sccc1S(=O)(=O)N1CCC(Nc2nc(N)c(C(=O)c3c(F)cccc3F)s2)CC1 [Example F10, 3-{4-[4-Amino-5-(2,6-difluoro-benzoyl)-thiazol-2-ylamino]-piperidine-1-sulfonyl}-thiophene-2-carboxylic acid methyl ester]
[1]
  Ki: 5.6 nM
[2]
  Ki: 7.9 nM
[3]; first HCT-116 column (c4)
  IC50: 280 nM
[3]; second HCT-116 column (c5)
  IC50: < 5000 nM

## Nc1nc(NC2CCN(S(=O)(=O)c3ccc(N4CC[S+]([O-])CC4)nc3)CC2)sc1C(=O)c1c(F)cccc1F [Example G4, 1-(4-Amino-2-{1-[6-(1-oxo-thiomorpholine-4-yl)-pyridine-3-sulfonyl]-piperidin-4-ylamino}-thiazol-5-yl)-1-(2,6-difluoro-phenyl)-methanone]
[1]
  Ki: 0.94 nM
[2]
  Ki: 1.4 nM
[3]; first HCT-116 column (c4)
  IC50: 1500 nM
[3]; second HCT-116 column (c5)
  IC50: 5000 nM

## COc1cc(C(=O)N2CCC(Nc3nc(N)c(C(=O)c4c(F)cccc4F)s3)CC2)cc(OC)c1C [Example D17, {4-Amino-2-[1-(3,5-dimethoxy-4-methyl-benzoyl)-piperidin-4-ylamino]-thiazol-5-yl-}(2,6-difluoro-phenyl)-methanone]
[1]
  Ki: 18 nM
[2]
  Ki: 69 nM
[3]; first HCT-116 column (c4)
  IC50: 57 nM
[3]; second HCT-116 column (c5)
  IC50: 160 nM

## CC(=O)Oc1ccccc1C(=O)N1CCC(Nc2nc(N)c(C(=O)c3c(F)cccc3F)s2)CC1 [Example Q14]
[1]; 0.03 μM compound, Table 4
  CDK4 % Inhibition at 0.03 μM: 80%
[2]; 0.03 μM compound, Table 4
  CDK2 % Inhibition at 0.03 μM: 59%
[3]; [4]
  HCT-116 % Inhibition at 0.1 μM: 15%
[3]; HCT-116, Table 4
  HCT-116 % Inhibition at 0.25 μM: 45%

## CC(Oc1ccccc1)C(=O)N1CCC(Nc2nc(N)c(C(=O)c3c(F)cccc3F)s2)CC1 (stereo not drawn) [Example R159]
[1]; at 0.03 μM
  CDK4 % Inhibition at 0.03 μM: 36%
[2]; at 0.03 μM
  CDK2 % Inhibition at 0.03 μM: 14%
[3]; HCT-116 cells, at 0.1 μM
  HCT-116 % Inhibition at 0.1 μM: 0%
[3]; HCT-116 cells
  HCT-116 5 Inhibition at 0.25 μM: 46

## Nc1nc(NC2CCN(C(=O)c3ccncc3)CC2)sc1C(=O)c1c(F)cccc1F [Example Q81]
[1]; 0.03 μM compound, Table 4
  CDK4 % Inhibition at 0.03 μM: 19%
[2]; 0.03 μM compound, Table 4
  CDK2 % Inhibition at 0.03 μM: 6%
[3]; [4]
  HCT-116 % Inhibition at 0.1 μM: 4%
[3]; HCT-116, Table 4
  HCT-116 % Inhibition at 0.25 μM: 37%

Source: patent US20050101595A1, “N-containing cycloalkyl-substituted amino-thiazole derivatives and pharmaceutical compositions for inhibiting cell proliferation and methods for their use” (PFIZER INC., priority 2003, published 2005)
